Results as given in US9884842B2, “Combretastatin analogs” (The Board of Trustees of the University of Arkansas, priority 2013, dated 2018).

Key:
MOLT-4 = assay: NCI growth inhibition and cytotoxicity screen, Leukemia panel; conditions: Homo sapiens
OVCAR-5 = assay: NCI growth inhibition and cytotoxicity screen, Ovarian Cancer panel; conditions: Homo sapiens
SK-MEL-28 = assay: NCI growth inhibition and cytotoxicity screen, Melanoma panel; conditions: Homo sapiens
MDA-MB-468 = assay: cells; conditions: Homo sapiens
A549/ATCC = assay: NCI growth inhibition and cytotoxicity screen, Lung Cancer panel; conditions: Homo sapiens
OVCAR-8 = assay: NCI growth inhibition and cytotoxicity screen, Ovarian Cancer panel; conditions: Homo sapiens
HOP-62 = assay: NCI growth inhibition and cytotoxicity screen, Lung Cancer panel; conditions: Homo sapiens
HCC-2998 = assay: NCI growth inhibition and cytotoxicity screen, Colon Cancer panel; conditions: Homo sapiens
MDA-MB-435 = assay: NCI growth inhibition and cytotoxicity screen, Melanoma panel; conditions: Homo sapiens
RPMI-8226 = assay: NCI growth inhibition and cytotoxicity screen, Leukemia panel; conditions: Homo sapiens
RXF 393 = assay: NCI growth inhibition and cytotoxicity screen, Renal Cancer panel; conditions: Homo sapiens
SNB-75 = assay: NCI growth inhibition and cytotoxicity screen, CNS Cancer panel; conditions: Homo sapiens
HL-60(TB) = assay: cells; conditions: Homo sapiens
HOP-92 = assay: NCI growth inhibition and cytotoxicity screen, Lung Cancer panel; conditions: Homo sapiens
COLO 205 = assay: NCI growth inhibition and cytotoxicity screen, Colon Cancer panel; conditions: Homo sapiens
UACC-62 = assay: NCI growth inhibition and cytotoxicity screen, Melanoma panel; conditions: Homo sapiens
DU-145 = assay: NCI growth inhibition and cytotoxicity screen, Prostate Cancer panel; conditions: Homo sapiens
MDA-MB-231/ATCC = assay: NCI growth inhibition and cytotoxicity screen, Breast Cancer panel; conditions: Homo sapiens
SK-MEL-2 = assay: NCI growth inhibition and cytotoxicity screen, Melanoma panel; conditions: Homo sapiens
HS 578T = assay: NCI growth inhibition and cytotoxicity screen, Breast Cancer panel; conditions: Homo sapiens
TK-10 = assay: NCI growth inhibition and cytotoxicity screen, Renal Cancer panel; conditions: Homo sapiens
T-47D = assay: NCI growth inhibition and cytotoxicity screen, Breast Cancer panel; conditions: Homo sapiens, T47D
ACHN = assay: NCI growth inhibition and cytotoxicity screen, Renal Cancer panel; conditions: Homo sapiens
OVCAR-3 = assay: cells; conditions: Homo sapiens
A498 = assay: NCI growth inhibition and cytotoxicity screen, Renal Cancer panel; conditions: Homo sapiens
PC-3 = assay: NCI growth inhibition and cytotoxicity screen, Prostate Cancer panel; conditions: Homo sapiens
OVCAR-4 = assay: NCI growth inhibition and cytotoxicity screen, Ovarian Cancer panel; conditions: Homo sapiens
SK-MEL-5 = assay: NCI growth inhibition and cytotoxicity screen, Melanoma panel; conditions: Homo sapiens
SF-539 = assay: NCI growth inhibition and cytotoxicity screen, CNS Cancer panel; conditions: Homo sapiens
MCF7 = assay: NCI growth inhibition and cytotoxicity screen, Breast Cancer panel; conditions: Homo sapiens

COc1cc(/C(C#N)=C\c2cc3ccccc3s2)cc(OC)c1OC [Formula (I)(a)]
250 nM: CC50 (COLO 205; COLO 205, read-out: LC50)
< 10 nM: GI50 (MOLT-4; MOLT-4) | GI50 (OVCAR-5; OVCAR-5) | GI50 (SK-MEL-28; SK-MEL-28) | GI50 (MDA-MB-468; MDA-MB-468) | GI50 (A549/ATCC; A549) | GI50 (OVCAR-8; OVCAR-8) | GI50 (HOP-62; HOP-62) | GI50 (MDA-MB-435; MDA-MB-435) | GI50 (RPMI-8226; RPMI-8226) | GI50 (RXF 393; RXF 393) | GI50 (SNB-75; SNB-75) | GI50 (HL-60(TB); HL-60) | GI50 (HOP-92; HOP-92) | GI50 (COLO 205; COLO 205) | GI50 (UACC-62; UACC-62) | GI50 (DU-145; DU-145) | GI50 (MDA-MB-231/ATCC; MDA-MB-231) | GI50 (SK-MEL-2; SK-MEL-2) | GI50 (HS 578T) | GI50 (TK-10; TK-10) | GI50 (T-47D) | GI50 (ACHN) | GI50 (OVCAR-3; OVCAR-3) | GI50 (A498; A498) | GI50 (PC-3; PC-3) | GI50 (OVCAR-4; OVCAR-4) | GI50 (SK-MEL-5; SK-MEL-5) | GI50 (SF-539; SF-539) | GI50 (MCF7; MCF7)
> 100 µM: CC50 (MOLT-4; MOLT-4, read-out: LC50) | CC50 (OVCAR-5; OVCAR-5, read-out: LC50) | CC50 (SK-MEL-28; SK-MEL-28, read-out: LC50) | CC50 (MDA-MB-468; MDA-MB-468, read-out: LC50) | CC50 (A549/ATCC; A549, read-out: LC50) | CC50 (OVCAR-8; OVCAR-8, read-out: LC50) | CC50 (HOP-62; HOP-62, read-out: LC50) | CC50 (HCC-2998; HCC 2998, read-out: LC50) | CC50 (MDA-MB-435; MDA-MB-435, read-out: LC50) | CC50 (RPMI-8226; RPMI-8226, read-out: LC50) | CC50 (RXF 393; RXF 393, read-out: LC50) | CC50 (SNB-75; SNB-75, read-out: LC50) | CC50 (HL-60(TB); HL-60, read-out: LC50) | CC50 (HOP-92; HOP-92, read-out: LC50) | CC50 (UACC-62; UACC-62, read-out: LC50) | CC50 (DU-145; DU-145, read-out: LC50) | CC50 (MDA-MB-231/ATCC; MDA-MB-231, read-out: LC50) | CC50 (SK-MEL-2; SK-MEL-2, read-out: LC50) | CC50 (HS 578T; read-out: LC50) | CC50 (TK-10; TK-10, read-out: LC50) | CC50 (T-47D; read-out: LC50) | CC50 (ACHN; read-out: LC50) | CC50 (OVCAR-3; OVCAR-3, read-out: LC50) | CC50 (A498; A498, read-out: LC50) | CC50 (PC-3; PC-3, read-out: LC50) | CC50 (OVCAR-4; OVCAR-4, read-out: LC50) | CC50 (SK-MEL-5; SK-MEL-5, read-out: LC50) | CC50 (SF-539; SF-539, read-out: LC50) | CC50 (MCF7; MCF7, read-out: LC50)
19.2 nM: GI50 (HCC-2998; HCC 2998)
